Test results taken from patent publication US8507195B2, “MiRNAs dysregulated in triple-negative breast cancer” (The Regents of the University of Colorado, priority 2009, dated 2013).

Assays:
Type in all cases: cell-based
[1] = system: MCF7 cells; assay: Real time RT-PCR of miRNAs in hormone-treated MCF7 cells; settings: MCF7, estradiol and ICI
Protocol: Hormone Treatments. MCF7 cells were grown in phenol red-free media containing charcoal stripped serum for 24 hours prior to hormone treatments. The cells were treated with ethanol, 10 nM estradiol or a combination of 10 nM estradiol and 1 mM ICI 182,780 (ICI, Tocris Bioscience) for 6 h, 24 h or 48 h, as indicated, before harvesting RNA using Trizol (Invitrogen) as per the manufacturer's instructions.
Real Time RT-PCR. Poly A tailing and reverse transcription was performed using the NCode miRNA qRT-PCR kit (Invitrogen) as per manufacturer's instructions. SYBR green real time RT-PCR was performed using the Universal Forward Primer (Invitrogen) and miRNA specific primers. The specific primers used were: miR-193b 5′-[…]-3′ (SEQ ID NO: 10); miR-19b 5′-[…]-3′ (SEQ ID NO: 11); miR-20a 5′-[…]-3′ (SEQ ID NO: 12); miR-106a 5′-[…]-3′ (SEQ ID NO: 13); and miR-92b* 5′-[…]-3′ (SEQ ID NO: 14). Reported values are the means and standard errors of 3 biological replicates.
For miR-22, miR-221 and miR-7, taqman real time PCR was performed. Prior to generating cDNA, mRNA was treated with DNase1 (Invitrogen) for 15 min at room temperature. RNA was reverse transcribed into cDNA in a reaction containing reaction buffer, 10 mM DTT, 1 mM dNTPs, RNAse inhibitor (Promega), random hexamers (250 ng) and 200 U of MMUV-RT (ABI). The reaction proceeded at 25° C. for 10 min, then at 37° C. for 1 h. For normalization, real time RT-PCR was performed on the cDNA using ribosomal RNA primers and probe (ABI). TaqMan mRNA Reverse Transcription kit was used to generate cDNA for real time RT-PCR reaction in conjunction with a miR-22, miR-221 or miR-7 specific primers and probe (ABI). Reported values are the means and standard errors of three biological replicates.
The relative mRNA or miRNA levels were calculated using the comparative Ct method (ΔΔCt). Briefly, the Ct (cycle threshold) values for the rRNA were subtracted from Ct values of the target gene to achieve the ΔCt value. The 2^−ΔCt was calculated for each sample and then each of the values was then divided by a control sample to achieve the relative miRNA levels (ΔΔCt).

[2] = system: MCF10A (normal immortalized) cells; assay: Apoptosis in MCF10A cells after miR-193b transfection
[3] = system: BT549 (triple negative) cells; assay: Apoptosis (PARP cleavage immunoblot) in triple-negative (BT549) cells; settings: TN cells (BT549), 50 nM mimic, 72 h
Protocol: (§1) Transfections. BT549 or MDA-MB-231 cells were plated one day prior to transfection. Lipofectamine 2000 (Invitrogen) was incubated with the miRNA mimics for miR-22, miR-221, miR-193b or miR-7 (Ambion) or scrambled negative control (Ambion) at a concentration of 50 nM incubated in serum free media for 20 minutes prior to addition to the cells. Cells were incubated with the transfection mix at 37° C. for 4 h before replacement of FBS to 5%. Protein was harvested 72 h post-transfection using RIPA lysis buffer (1% NP40, 0.5% NaDeoxycholate, 0.1% SDS, 50 mM Tris, 150 mM NaCl, 5 mM EDTA) containing protease inhibitors.
(§2) Immunoblotting. Cell lysates (50 μg) in SDS sample buffer were denatured and separated on 8% SDS PAGE gels and transferred to PVDF membranes. The membranes were blocked in 5% milk in TBS-T, and then probed overnight at 4° C. […] After incubation with appropriate HRP-conjugated secondary antibody, results were detected using Western Lightning Chemiluminescence Reagent Plus (Perkin Elmer).

[4] = system: FASN; assay: Immunoblot of FASN in triple-negative (BT549) cells after miR-193b mimic transfection; settings: TN cells (BT549), 50 nM mimic, 72 h
Protocol: as §1, §2

[5] = system: ESR1 3′UTR; assay: Luciferase reporter assay, ESR1 3′UTR region ESR1-1, in MCF7 cells; settings: ESR1-1 reporter, 50 nM each mimic, versus scrambled negative control
Text: Luciferase Assays. A 360 bp fragment of the 3′ untranslated region of ESR1 containing the putative binding sites for miR-203, miR-221 and miR-22 was amplified by PCR from HeLa genomic DNA (NEB) using the following primers: ESR1-1 F 5′-[…]-3′ (SEQ ID NO: 6) and ESR1-1 R 5′-[…]-3′ (SEQ ID NO: 7). A 680 bp fragment containing the putative binding sites for miR-130/301, miR-148/152, miR-19 and miR-26 was amplified using the following primers: ESR1-2 F 5′-[…]-3′ (SEQ ID NO: 8) and ESR1-2 R 5′-[…]-3′ (SEQ ID NO: 9). MCF7 cells (20,000 cells/well) in a 96-well plate were transfected with the 100 nM of the negative control, 50 nM each of the miR-22, miR-221 or both as described above. After 24 h, the firefly reporter plasmid (0.196 μg) and a renilla luciferase normalization plasmid (0.004 μg/pRL-SV40, Promega) were transfected in using Lipofectamine 2000. Cells were collected 48 hours later for assay using the Dual Luciferase Reporter assay system (Promega).

Which “estradiol effect on miR-92b*” value ([1]; 24 h) does the source give for `C[C@]12CC[C@@H]3c4ccc(O)cc4C[C@@H](CCCCCCCCC[S+]([O-])CCCC(F)(F)C(F)(F)F)[C@H]3[C@@H]1CC[C@@H]2O` (stereo partly drawn) [ICI, ICI 182,780] here?
Its value is “reversed”.

What about the “estradiol effect on miR-19b” value ([1]; 48 h) of the same compound?
Its value is “abrogated”.

And the “estradiol effect on miR-20a” value ([1]; 48 h)?
The value was “abrogated”.

And the “estradiol effect on miR-106a” value ([1]; 48 h)?
Its value is “abrogated”.

Which apoptosis [2] does the source give for “miR-193b mimic: miRNA mimic for miR-193b (Ambion); miR-193b is SEQ ID NO:1 aacuggcccucaaagucccgcu (AACUGGCCCUCAAAGUCCCGCU; mimic duplex, complementary strand not listed, further chemistry not given here)” here?
The apoptosis was “no apoptosis”.

And the PARP cleavage [3]?
The PARP cleavage was “complete PARP cleavage”.

What about the “apoptosis, as seen by the appearance of cleaved PARP” value [3] of the same compound?
The value was “increase in apoptosis”.

What about the FASN protein [4] of the same compound?
The FASN protein was “almost complete repression”.

“miR-221 mimic: miRNA mimic for miR-221 (Ambion); hsa-miR-221 sequence agcuacauugucugcuggguuuc (AGCUACAUUGUCUGCUGGGUUUC; chemistry not given here)” was tested. Which “decrease in luciferase activity” value [5] did it give?
Its value is 13.7%.
